# Laboratory results from patent US20100130439A1, “GENOMIC MUTATION INHIBITORS THAT INHIBIT Y FAMILY DNA POLYMERASES” (priority 2007, published 2010).
# Experiments:
# [1] = tested on: wild-type and the isolated mutant cells; assay: MIC of AZT against wild-type and isolated mutant cells; type: cell-based, E. coli
# Method: (§1) Characterization of mutants. The MICs were determined of over one hundred isolated antibiotic-resistant colonies. All of the ciprofloxacin-resistant mutants had MICs of 480 ng/mL (FIG. 2B). The ciprofloxacin resistance mutants contained a CG to TA transition translating into a Ser 83→Leu mutation in DNA gyrase. This mutation is known to provide the greatest ciprofloxacin resistance obtainable in a single step (Drlica K, Zhao X (1997) Microbiol Mol Biol Rev 61: 377-392).
# CC 102 = assay: MIC of AZT against CC102; type: cell-based, E. coli; conditions: Escherichia coli, read-out: AZT MIC
# From the text: One strain, CC102, required a GC to AT transition.
# [2] = tested on: most gram-negative bacteria; conditions: Elwell et al. 1987; cited from earlier work
# [3] = tested on: ciprofloxacin-resistant mutants; assay: MIC of isolated ciprofloxacin-resistant colonies; type: cell-based, E. coli; conditions: Escherichia coli
# Method: as §1
# [4] = tested on: wild-type MG1655 K12 E. coli; type: cell-based; conditions: d4T 6 μg/mL
# [5] = tested on: triclosan-resistant mutants; assay: MIC of isolated triclosan-resistant colonies; type: cell-based, E. coli; conditions: Escherichia coli
# Method: as §1
# The vast majority of isolated triclosan-resistant mutants (˜85%) had MICs of 16 μg/mL. These colonies had acquired a GC to TA transversion resulting in a Gly 93→Val mutation in FabI, the known protein target of triclosan (FIG. 2B). This mutation is known to produce the greatest triclosan resistance possible via a single step (McMurry L, Oethinger M, Levy S (1998) Nature 394: 531-532). […] It is, therefore, reasonable that the frequency of UV-induced triclosan-resistant mutants is considerably lower (˜8-fold) than the frequency of UV-induced ciprofloxacin-resistant mutants. The remaining triclosan-resistant mutants (˜15%) had MICs between 2-4 μg/mL. These included three different mutations of Phe 203 in FabI: a TA to CG transition giving serine, a TA to GC transversion giving valine, and a TA to GC transversion giving cystine (FIG. 2B). […]
compound,measurement,setting,value
"Cc1cn([C@H]2C[C@H](N=[N+]=[N-])[C@@H](CO)O2)c(=O)[nH]c1=O [AZT, 3′-azido-2′-deoxythymidine]",MIC,[1]; both the wild-type and the isolated ciprofloxacin-/triclosan-resistant mutant cells,0.01 µg/mL
same,sensitivity to AZT,[1]; several rifampicin-resistant mutants,varying sensitivities
same,MIC,CC 102,0.02 µg/mL
same,antibacterial activity,[2],antibacterial activity
O=C(O)c1cn(C2CC2)c2cc(N3CCNCC3)c(F)cc2c1=O [ciprofloxacin],MIC,[3],0.48 µg/mL
"Cc1cn([C@H]2C=C[C@@H](CO)O2)c(=O)[nH]c1=O [d4T, 2′,3′-didehydro-3′-deoxythymidine]",UV-induced generation of mutations that confer resistance to ciprofloxacin,[4],inhibits
same,antibacterial activity,[2],antibacterial activity
Oc1cc(Cl)ccc1Oc1ccc(Cl)cc1Cl [triclosan],MIC,[5]; remaining (~15%) triclosan-resistant mutants (FabI Phe 203 mutations),2 to 4 µg/mL
same,MIC,[5]; vast majority (~85%) of triclosan-resistant mutants (FabI Gly 93→Val),16 µg/mL
